{"source": "patent US9023849B2", "about": "“Substituted fused imidazoles and pyrazoles and use thereof” (Bayer Intellectual Property GmbH, priority 2012, dated 2015)", "key": {"[1]": {"system": "recombinant guanylate cyclase reporter cell line", "assay": "Effect on a recombinant guanylate cyclase reporter cell line", "assay_type": "cell-based", "conditions": "read-out: MEC (minimal effective concentration)", "description": "B-2. Effect on a Recombinant Guanylate Cyclase Reporter Cell Line\nThe cellular action of the inventive compounds is determined on a recombinant guanylate cyclase reporter cell line as described in F. Wunder et al., Anal. Biochem. 339, 104-112 (2005)."}, "rabbit aorta rings": {"system": "rabbit aorta rings", "assay": "Vasorelaxant effect in vitro (rabbit aorta rings precontracted with phenylephrine)", "conditions": "Oryctolagus cuniculus, phenylephrine contraction, read-out: IC50 (concentration needed to reduce the magnitude of the phenylephrine contraction by 50%)", "description": "B-1. Vasorelaxant Effect In Vitro\nRabbits are stunned by a blow to the neck and exsanguinated. The aorta is removed, freed from adhering tissue and divided into rings of width 1.5 mm, which are placed individually under prestress into 5 ml organ baths with carbogen-sparged Krebs-Henseleit solution at 37° C. having the following composition (each mM): sodium chloride: 119; potassium chloride: 4.8; calcium chloride dihydrate: 1; magnesium sulphate heptahydrate: 1.4; potassium dihydrogenphosphate: 1.2; sodium hydrogencarbonate: 25; glucose: 10. The contractile force is determined with Statham UC2 cells, amplified and digitalized using A/D transducers (DAS-1802 HC, Keithley Instruments Munich), and recorded in parallel on linear recorders.\nTo obtain a contraction, phenylephrine is added to the bath cumulatively in increasing concentration. After several control cycles, the substance to be studied is added in increasing dosage each time in every further run, and the magnitude of the contraction is compared with the magnitude of the contraction attained in the last preceding run. This is used to calculate the concentration needed to reduce the magnitude of the control value by 50% (IC50 value). The standard administration volume is 5 μl; the DMSO content in the bath solution corresponds to 0.1%."}, "human PDE 5": {"molecular_target": "human PDE 5 (Homo sapiens (Human), UniProt O76074)", "assay": "Inhibition of human phosphodiesterase 5 (PDE 5), SPA assay", "assay_type": "biochemical", "conditions": "PDE 5 preparation from human platelets, [8-3H]cGMP substrate", "description": "B-6. Inhibition of Human Phosphodiesterase 5 (PDE 5)\nPDE 5 preparations are obtained from human platelets by disruption (Microfluidizer®, 800 bar, 3 passes), followed by centrifugation (75 000 g, 60 min, 4° C.) and ion exchange chromatography of the supernatant on a Mono Q 10/10 column (linear sodium chloride gradient, elution with a 0.2-0.3M solution of sodium chloride in buffer (20 mM Hepes pH 7.2, 2 mM magnesium chloride). Fractions having PDE 5 activity are combined (PDE 5 preparation) and stored at −80° C.\nTo determine their in vitro action on human PDE 5, the test substances are dissolved in 100% DMSO and serially diluted. Typically, dilution series (1:3) from 200 μM to 0.091 μM are prepared (resulting final concentrations in the test: 4 μM to 0.0018 μM). In each case 2 μl of the diluted substance solutions are placed into the wells of microtitre plates (Isoplate-96/200 W; Perkin Elmer). Subsequently, 50 μl of a dilution of the above-described PDE 5 preparation are added. The dilution of the PDE 5 preparation is selected such that, during the later incubation, less than 70% of the substrate is converted (typical dilution: 1:100; dilution buffer: 50 mM tris/hydrochloric acid pH 7.5, 8.3 mM magnesium chloride, 1.7 mM EDTA, 0.2% BSA). The substrate, [8-^3H]cyclic guanosine-3′,5′-monophosphate (1 μCi/μl; Perkin Elmer) is diluted 1:2000 with assay buffer (50 mM tris/hydrochloric acid pH 7.5, 8.3 mM magnesium chloride, 1.7 mM EDTA) to a concentration of 0.0005 μCi/μl. By addition of 50 μl (0.025 μCi) of the diluted substrate, the enzyme reaction is finally started. The test mixtures are incubated at room temperature for 60 min and the reaction is stopped by adding 25 μl of a suspension of 18 mg/ml yttrium scintillation proximity beads in water (phosphodiesterase beads for SPA assays, RPNQ 0150, Perkin Elmer). The microtitre plates are sealed with a film and left to stand at room temperature for 60 min Subsequently, the plates are analysed for 30 s per well in a Microbeta scintillation counter (Perkin Elmer). IC50 values are determined using the graphic plot of the substance concentration against percentage PDE 5 inhibition."}}, "data": [{"compound": "CC1(C)C(=O)Nc2nc(-n3nc(Cc4ccccc4F)c4cc(F)ccc43)ncc21", "note": "[Example 8, 2-[5-Fluoro-3-(2-fluorobenzyl)-1H-indazol-1-yl]-5,5-dimethyl-5,7-dihydro-6H-pyrrolo[2,3-d]pyrimidin-6-one]", "values": [{"measurement": "minimal effective concentration", "setting": "[1]", "result": 0.3, "unit": "µM"}, {"measurement": "IC50", "setting": "rabbit aorta rings", "result": 0.095, "unit": "µM"}, {"measurement": "IC50", "setting": "human PDE 5", "result": 0.4, "unit": "µM"}]}]}
